Laboratory results published in patent publication US20220089575A1, “FARNESOID X RECEPTOR AGONISTS AND USES THEREOF” (Metacrine, Inc., priority 2017, published 2022).

These compounds were tested against T1, hFXR (Homo sapiens, UniProt Q96RI1) (assay: In Vitro FXR Assay (TK): TK-ECRE-luc reporter in transfected CV-1 cells). Conditions: 18 hrs, luminescence, maximum efficacy of <25% of the Fexarmine control classified as '+'.
T1 construct: expressed in transfected cells; host or cells: CV-1 cells
T1 sequence (Q96RI1 1-486): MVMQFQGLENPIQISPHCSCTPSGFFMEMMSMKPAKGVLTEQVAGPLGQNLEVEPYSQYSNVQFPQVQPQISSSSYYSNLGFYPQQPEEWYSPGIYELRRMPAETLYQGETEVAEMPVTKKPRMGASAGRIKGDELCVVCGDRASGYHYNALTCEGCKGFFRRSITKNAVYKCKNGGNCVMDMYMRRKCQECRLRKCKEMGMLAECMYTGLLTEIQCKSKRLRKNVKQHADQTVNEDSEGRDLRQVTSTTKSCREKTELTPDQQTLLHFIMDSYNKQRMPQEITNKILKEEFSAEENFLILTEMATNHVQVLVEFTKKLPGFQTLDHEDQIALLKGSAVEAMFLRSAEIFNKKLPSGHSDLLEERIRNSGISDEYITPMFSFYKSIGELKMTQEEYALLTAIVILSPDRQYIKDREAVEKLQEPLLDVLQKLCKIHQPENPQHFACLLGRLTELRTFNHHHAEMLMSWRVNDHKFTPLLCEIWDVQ
T1 sequence (P19793 1-462 partner): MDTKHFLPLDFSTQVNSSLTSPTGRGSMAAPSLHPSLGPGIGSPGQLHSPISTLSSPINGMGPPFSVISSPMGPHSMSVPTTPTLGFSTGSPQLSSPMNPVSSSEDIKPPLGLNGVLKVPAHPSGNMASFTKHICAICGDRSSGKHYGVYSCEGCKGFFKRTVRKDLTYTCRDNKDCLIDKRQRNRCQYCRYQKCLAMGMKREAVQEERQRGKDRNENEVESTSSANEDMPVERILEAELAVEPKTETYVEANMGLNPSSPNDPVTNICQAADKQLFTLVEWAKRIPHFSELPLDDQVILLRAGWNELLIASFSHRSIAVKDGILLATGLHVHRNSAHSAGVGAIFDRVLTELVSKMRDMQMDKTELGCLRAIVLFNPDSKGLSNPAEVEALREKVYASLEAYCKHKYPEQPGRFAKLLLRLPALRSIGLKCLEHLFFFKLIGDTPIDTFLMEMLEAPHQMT
Format: cell-based
Outline: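 CV-1, transient co-transfection: hFXR + hRXR + TK-ECRE-luc + pCMX-YFP; charcoal-stripped serum. 18 h post-transfection, DMSO serial dilutions of cpd added; 18 h incubation; lysis, luminescence.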

EC50 [nM]	Structure (SMILES)
≤ 250	CNC(=O)O[C@H]1CC[C@H](C(=O)N(C[C@H]2CC[C@H](c3ccc(OC)c(C)n3)CC2)c2cccc(-c3cnc(C4CC4)s3)c2)CC1 [Compound 2.02, trans-4-((3-(2-Cyclopropylthiazol-5-yl)phenyl)((trans-4-(5-methoxy-6-methylpyridin-2-yl)cyclohexyl)methyl)carbamoyl)cyclohexyl methylcarbamate]
≤ 250	COc1ccc([C@H]2CC[C@H](CN(c3cccc(-c4cnn(C(C)C)c4)c3)C(=O)[C@H]3CC[C@H](CC(=O)O)CC3)CC2)cc1C [Compound 20.14, 2-(trans-4-((3-(1-Isopropyl-1H-pyrazol-4-yl)phenyl)((trans-4-(4-methoxy-3-methylphenyl)cyclohexyl)methyl)carbamoyl)cyclohexyl)acetic acid]
≤ 250	COc1ncc(-c2cccc(N(C[C@H]3CC[C@H](c4ccc(OC)c(C)c4)CC3)C(=O)[C@H]3CC[C@H](C(=O)OC)CC3)c2)s1 [Compound 18.07, trans-Methyl 4-(((trans-4-(4-methoxy-3-methylphenyl)cyclohexyl)methyl)(3-(2-methoxythiazol-5-yl)phenyl)carbamoyl)cyclohexanecarboxylate]
≤ 250	COc1ccc([C@H]2CC[C@H](CN(c3cc(-c4coc(C5CC5)n4)ccn3)C(=O)[C@H]3CC[C@H](OC(=O)NC4COC4)CC3)CC2)nc1C [Compound 6.60, trans-4-((4-(2-Cyclopropyloxazol-4-yl)pyridine-2-yl)((trans-4-(5-methoxy-6-methylpyridin-2-yl)cyclohexyl)methyl)carbamoyl)cyclohexyl oxetan-3-ylcarbamate]
250 to 1000	COc1ncc(-c2cccc(N(C[C@H]3CC[C@H](c4ccc(OC)c(C)c4)CC3)C(=O)[C@H]3CC[C@H](NC(=O)OC(C)(C)C)CC3)c2)s1 [Compound 25.01, tert-Butyl (trans-4-(((trans-4-(4-methoxy-3-methylphenyl)cyclohexyl)methyl)(3-(2-methoxythiazol-5-yl)phenyl)carbamoyl)cyclohexyl)carbamate]
≤ 250	COc1ccc([C@H]2CC[C@H](CN(c3cccc(-c4cnn(C5CC5)c4)c3)C(=O)[C@H]3CC[C@H](OC(=O)N4CCOCC4)CC3)CC2)cc1C [Compound 4.07, trans-4-((3-(1-Cyclopropyl-1H-pyrazol-4-yl)phenyl)((trans-4-(4-methoxy-3-methylphenyl)cyclohexyl)methyl)carbamoyl)cyclohexyl morpholine-4-carboxylate]
≤ 250	COc1ncc([C@H]2CC[C@H](CN(c3cc(-c4coc(C5CC5)n4)ccn3)C(=O)[C@H]3CC[C@H](OC(=O)N4CC(N(C)C)C4)CC3)CC2)cc1C [Compound 7.92, trans-4-((4-(2-Cyclopropyloxazol-4-yl)pyridine-2-yl)((trans-4-(6-methoxy-5-methylpyridin-3-yl)cyclohexyl)methyl)carbamoyl)cyclohexyl 3-(dimethylamino)azetidine-1-carboxylate]
≤ 250	COc1ccc([C@H]2CC[C@H](CN(c3cccc(-c4cnn(C5CC5)c4)c3)C(=O)[C@H]3CC[C@H](OC(=O)NCCCO)CC3)CC2)cc1C [Compound 4.10, trans-4-((3-(1-Cyclopropyl-1H-pyrazol-4-yl)phenyl)((trans-4-(4-methoxy-3-methylphenyl)cyclohexyl)methyl)carbamoyl)cyclohexyl (3-hydroxypropyl)carbamate]
≥ 1000	COc1ccc([C@H]2CC[C@@H](CN(c3cccc(-c4coc(C5CC5)n4)c3)C(=O)[C@H]3CC[C@H](CC(=O)O)CC3)CC2)nc1C [Compound 21.04, 2-(trans-4-((3-(2-Cyclopropyloxazol-4-yl)phenyl)((cis-4-(5-methoxy-6-methylpyridin-2-yl)cyclohexyl)methyl)carbamoyl)cyclohexyl) acetic acid]
≥ 1000	COc1ccc([C@H]2CC[C@H](CN(c3cc(-c4cnn(C(C)C)c4)ccn3)C(=O)[C@H]3CC[C@H](CC(=O)O)CC3)CC2)nc1C#N [Compound 17.27, 2-(trans-4-(((trans-4-(6-Cyano-5-methoxypyridin-2-yl)cyclohexyl)methyl)(4-(1-isopropyl-1H-pyrazol-4-yl)pyridin-2-yl)carbamoyl)cyclohexyl)acetic acid]

More lines, now with the values behind:

Structure (SMILES)	EC50 [nM]
COc1ccc([C@H]2CC[C@H](CN(c3cc(-c4coc(C5CC5)n4)ccn3)C(=O)[C@H]3CC[C@H](NC(=O)COC(C)=O)CC3)CC2)cc1C [Compound 26.17, 2-((trans-4-((4-(2-cyclopropyloxazol-4-yl)pyridine-2-yl)((trans-4-(4-methoxy-3-methylphenyl)cyclohexyl)methyl)carbamoyl)cyclohexyl)amino)-2-oxoethyl acetate]	≤ 250
COc1ccc([C@H]2CC[C@H](CN(c3cccc(-c4cnc(C5CC5)s4)c3)C(=O)[C@H]3CC[C@H](NC(=O)C4CN(C)C4)CC3)CC2)cc1C [Compound 27.05, N-(trans-4-((3-(2-Cyclopropylthiazol-5-yl)phenyl)((trans-4-(4-methoxy-3-methylphenyl)cyclohexyl)methyl)carbamoyl)cyclohexyl)-1-methylazetidine-3-carboxamide]	≥ 1000
COc1ccc([C@H]2CC[C@H](CN(c3cccc(-c4cnn(C5CC5)c4)c3)C(=O)[C@H]3CC[C@H](NC(=O)CNC(C)=O)CC3)CC2)cc1C [Compound 31.01, trans-4-(2-Acetamidoacetamido)-N-(3-(1-cyclopropyl-1H-pyrazol-4-yl)phenyl)-N-((trans-4-(4-methoxy-3-methylphenyl)cyclohexyl)methyl)cyclohexanecarboxamide]	≥ 1000
COc1ccc([C@H]2CC[C@H](CN(c3cc(-c4coc(C5CC5)n4)ccn3)C(=O)[C@H]3CC[C@H](CC(=O)O)CC3)CC2)nc1C [Compound 21.07, 2-(trans-4-((4-(2-Cyclopropyloxazol-4-yl)pyridin-2-yl)((trans-4-(5-methoxy-6-methylpyridin-2-yl)cyclohexyl)methyl)carbamoyl)cyclohexyl) acetic acid]	≤ 250
COc1ccc([C@H]2CC[C@H](CN(c3cc(-c4cnn(C(C)C)c4)ccn3)C(=O)[C@H]3CC[C@H](OC(=O)N4CCOCC4)CC3)CC2)cc1C#N [Compound 6.37, trans-4-(((trans-4-(3-Cyano-4-methoxyphenyl)cyclohexyl)methyl)(4-(1-isopropyl-1H-pyrazol-4-yl)pyridin-2-yl)carbamoyl)cyclohexyl morpholine-4-carboxylate]	≤ 250
COc1ccc(C23CCC(CN(c4cccc(-c5cnc(C6CC6)s5)c4)C(=O)[C@H]4CC[C@H](OC(=O)NCCO)CC4)(CC2)CC3)cc1C [Compound 4.02, 4-((3-(2-Cyclopropylthiazol-5-yl)phenyl)((4-(4-methoxy-3-methylphenyl)bicyclo[2.2.2]octan-1-yl)methyl)carbamoyl)cyclohexyl (2-hydroxyethyl)trans-carbamate]	≤ 250
COc1ccc([C@H]2CC[C@H](CN(c3cccc(-c4cnc(C5CC5)s4)c3)C(=O)[C@H]3CC[C@H](C(=O)O)CC3)CC2)cc1C#N [Compound 17.11, trans-4-(((trans-4-(3-Cyano-4-methoxyphenyl)cyclohexyl)methyl)(3-(2-4-cyclopropylthiazol-5-yl)phenyl)carbamoyl)cyclohexanecarboxylic acid]	≤ 250
COc1ncc([C@H]2CC[C@H](CN(c3cccc(-c4cnn(C5CC5)c4)c3)C(=O)[C@H]3CC[C@H](OC(=O)N4CC(O)C4)CC3)CC2)cc1C [Compound 7.25, trans-4-((3-(1-Cyclopropyl-1H-pyrazol-4-yl)phenyl)((trans-4-(6-methoxy-5-methylpyridin-3-yl)cyclohexyl)methyl)carbamoyl)cyclohexyl 3-hydroxyazetidine-1-carboxylate]	≤ 250
COc1ccc([C@H]2CC[C@H](CN(c3cccc(-c4cnn(C5CC5)c4)c3)C(=O)[C@H]3CC[C@H](C(=O)O)CC3)CC2)cc1Cl [Compound 17.15, trans-4-(((trans-4-(3-Chloro-4-methoxyphenyl)cyclohexyl)methyl)(3-(1-cyclopropyl-1H-pyrazol-4-yl)phenyl)carbamoyl) cyclohexanecarboxylic acid]	≤ 250
CN(C)c1ccc([C@H]2CC[C@H](CN(c3cccc(-c4cnn(C5CC5)c4)c3)C(=O)[C@H]3CC[C@H](OC(=O)NCCO)CC3)CC2)cn1 [Compound 6.08, trans-4-((3-(1-Cyclopropyl-1H-pyrazol-4-yl)phenyl)((trans-4-(6-(dimethylamino)pyridin-3-yl)cyclohexyl)methyl)carbamoyl)cyclohexyl (2-hydroxyethyl)carbamate]	≤ 250
